Experimental findings from the CheMixHub viscosity set are described below.

± gives the uncertainty stated by the source.

Take `CCC(O)CO` (configuration not stated): the viscosity by setting is: (298.15 K, 100 kPa) 51.63 ± 1.1 mPa·s; (298.15 K, 101 kPa) 52.8 ± 0.27 mPa·s; (303.15 K, 100 kPa) 37.66 ± 0.78 mPa·s; (303.15 K, 101 kPa) 38.71 ± 0.25 mPa·s; (308.15 K, 100 kPa) 28.44 ± 0.59 mPa·s; (308.15 K, 101 kPa) 29.48 ± 0.19 mPa·s. The viscosity worked out at 21.59 ± 0.45 mPa·s (313.15 K, 100 kPa); 22.86 ± 0.15 mPa·s (313.15 K, 101 kPa); 16.74 ± 0.35 mPa·s (318.15 K, 100 kPa); 13.22 ± 0.27 mPa·s (323.15 K, 100 kPa); 12.85 ± 0.77 mPa·s (323.15 K, 101 kPa).
Turning to `CCCC(=O)OC`, the viscosity amounted to 0.546 ± 0.015 mPa·s (298.15 K, 101 kPa) and 0.374 ± 0.01 mPa·s (323.15 K, 101 kPa).
`CCCCCCCCNCCCCCCCC` displayed a viscosity (303.15 K, 101 kPa) of 3.665 ± 0.073 mPa·s.
As for `CCCCOC(=O)c1ccccc1`, the viscosity runs as follows: (293.15 K, 101.33 kPa) 2.835 ± 0.016 mPa·s; (298.15 K, 101 kPa) 2.691 ± 0.085 mPa·s; (303.15 K, 101.33 kPa) 2.189 ± 0.013 mPa·s; (308.15 K, 101 kPa) 2.208 ± 0.069 mPa·s; (313.15 K, 101.33 kPa) 1.73 ± 0.01 mPa·s; (318.15 K, 101 kPa) 1.819 ± 0.057 mPa·s. The same compound showed a viscosity (323.15 K, 101.33 kPa) of 1.388 ± 0.009 mPa·s.
Where the note is “303.15 K, 101 kPa”, `CCOC(=O)CCCBr` showed a viscosity of 1.826 ± 0.011 mPa·s.
Take `COCCOCCOCCOC`: the viscosity runs as follows: (298.15 K, 101 kPa) 1.979 ± 0.06 mPa·s; (298.15 K, 101.33 kPa) 1.95 ± 0.015 mPa·s; (308.15 K, 101 kPa) 1.607 ± 0.05 mPa·s.
As to `ClCc1ccccc1`, the viscosity (298.15 K, 101 kPa) came out at 1.377 ± 0.033 mPa·s and the viscosity (303.15 K, 101 kPa) stood at 1.112 ± 0.01 mPa·s.

What is called viscosity is the internal friction of a fluid under shear.
